Reference: the supplement of paper PMC8149375

Assays:
Settings in all cases: treatment: drug + dasatinib (fixed dose, not stated); 5 days
769-P [1] = assay: GI50 of drug in presence of dasatinib; higher = less potent
Protocol: (§1)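 Primary HTS combination arm: 8 RCC cell lines treated with 8 doses (up to 10 uM) of each library drug plus a fixed dose of dasatinib (dose not stated) for 5 days; viability read by CellTiter-Glo and normalised to DMSO. GI50 was fitted with XLfit, AUC is the area under the dose-response curve, and minimum viability is the lowest fraction of DMSO viability across doses.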

786-O [2] = assay: as above
Protocol: as §1

A498 [3] = assay: as above
Protocol: as §1

ACHN [4] = assay: as above
Protocol: as §1

CAKI-1 [5] = assay: as above
Protocol: as §1

SN12C [6] = assay: as above
Protocol: as §1

TK-10 [7] = assay: as above
Protocol: as §1

UO-31 [8] = assay: as above
Protocol: as §1

769-P [9] = assay: minimum viability across doses, drug + dasatinib, relative to DMSO (fraction); higher = less growth inhibition
Protocol: as §1

786-O [10] = assay: as above
Protocol: as §1

A498 [11] = assay: as above
Protocol: as §1

ACHN [12] = assay: as above
Protocol: as §1

CAKI-1 [13] = assay: as above
Protocol: as §1

SN12C [14] = assay: as above
Protocol: as §1

TK-10 [15] = assay: as above
Protocol: as §1

UO-31 [16] = assay: as above
Protocol: as §1

769-P [17] = assay: AUC of dose-response viability curve, drug + dasatinib, normalised to DMSO (arbitrary (AUC of normalised viability)); higher = less growth inhibition
Protocol: as §1

786-O [18] = assay: as above
Protocol: as §1

A498 [19] = assay: as above
Protocol: as §1

ACHN [20] = assay: as above
Protocol: as §1

CAKI-1 [21] = assay: as above
Protocol: as §1

SN12C [22] = assay: as above
Protocol: as §1

TK-10 [23] = assay: as above
Protocol: as §1

UO-31 [24] = assay: as above
Protocol: as §1

Row | SMILES | GI50 of drug (786-O [2]) | GI50 of drug (ACHN [4]) | GI50 of drug (769-P [1]) | GI50 of drug (A498 [3]) | GI50 of drug (CAKI-1 [5]) | GI50 of drug (SN12C [6]) | GI50 of drug (TK-10 [7]) | GI50 of drug (UO-31 [8]) | minimum viability across doses (769-P [9]) | minimum viability across doses (786-O [10]) | minimum viability across doses (A498 [11]) | minimum viability across doses (ACHN [12]) | minimum viability across doses (CAKI-1 [13]) | minimum viability across doses (SN12C [14]) | minimum viability across doses (TK-10 [15]) | minimum viability across doses (UO-31 [16]) | AUC of dose-response viability curve (769-P [17]) | AUC of dose-response viability curve (786-O [18]) | AUC of dose-response viability curve (A498 [19]) | AUC of dose-response viability curve (ACHN [20]) | AUC of dose-response viability curve (CAKI-1 [21]) | AUC of dose-response viability curve (SN12C [22]) | AUC of dose-response viability curve (TK-10 [23]) | AUC of dose-response viability curve (UO-31 [24])
1 | Cc1[nH]c(/C=C2\C(=O)Nc3ccc(S(=O)(=O)Cc4c(Cl)cccc4Cl)cc32)c(C)c1C(=O)N1CCC[C@@H]1CN1CCCC1 + Cc1nc(Nc2ncc(C(=O)Nc3c(C)cccc3Cl)s2)cc(N2CCN(CCO)CC2)n1 [dasatinib] | 3300 nM | 1060 nM | 2300 nM | 2100 nM | 2160 nM | 4240 nM | 4110 nM | 3100 nM | 0.00439 | 0.0107 | 0.0111 | 0.00119 | 0.00431 | 0.00449 | 0.00273 | 0.0078 | 2.14 | 2.38 | 2.71 | 1.93 | 2.04 | 2.19 | 2.73 | 2.84
2 | CN(C)C1CCN(C(=O)c2ccc(NC(=O)Nc3ccc(-c4nc(N5CCOCC5)nc(N5CCOCC5)n4)cc3)cc2)CC1 + Cc1nc(Nc2ncc(C(=O)Nc3c(C)cccc3Cl)s2)cc(N2CCN(CCO)CC2)n1 [dasatinib] | 49.8 nM | 165 nM | 2870 nM | 56.3 nM | 302 nM | 19.2 nM | 306 nM | 1680 nM | 0.147 | 0.00554 | 0.0743 | 0.125 | 0.0335 | 0.107 | 0.112 | 0.117 | 2.27 | 1.23 | 1.37 | 1.62 | 1.74 | 1.04 | 1.91 | 3.11
3 | COc1ccc(-c2cc3c(C)nc(N)nc3n([C@H]3CC[C@H](OCCO)CC3)c2=O)cn1 + Cc1nc(Nc2ncc(C(=O)Nc3c(C)cccc3Cl)s2)cc(N2CCN(CCO)CC2)n1 [dasatinib] | 40.2 nM | 15.4 nM | 94.6 nM | 491 nM | 41.7 nM | 79.4 nM | 62.1 nM | 129 nM | 0.0148 | 0.0021 | 0.161 | 0.0415 | 0.00992 | 0.0663 | 0.0233 | 0.00781 | 1.37 | 1.15 | 2.3 | 1 | 1.12 | 1.37 | 1.35 | 1.67
4 | CC(C)CC(=O)Nc1n[nH]c2c1CN(C(=O)C1CCN(C)CC1)C2(C)C + Cc1nc(Nc2ncc(C(=O)Nc3c(C)cccc3Cl)s2)cc(N2CCN(CCO)CC2)n1 [dasatinib] | 85.8 nM | 18.9 nM | 3220 nM | 1290 nM | 842 nM | 248 nM | 2840 nM | 1960 nM | 0.288 | 0.0032 | 0.00865 | 0.0258 | 0.0614 | 0.00656 | 0.184 | 0.0113 | 2.32 | 1.21 | 2.59 | 1.11 | 1.99 | 1.7 | 2.43 | 3.13

Further lines, with some results ahead:

Row | GI50 of drug (786-O [2]) | GI50 of drug (ACHN [4]) | SMILES | GI50 of drug (769-P [1]) | GI50 of drug (A498 [3]) | GI50 of drug (CAKI-1 [5]) | GI50 of drug (SN12C [6]) | GI50 of drug (TK-10 [7]) | GI50 of drug (UO-31 [8]) | minimum viability across doses (769-P [9]) | minimum viability across doses (786-O [10]) | minimum viability across doses (A498 [11]) | minimum viability across doses (ACHN [12]) | minimum viability across doses (CAKI-1 [13]) | minimum viability across doses (SN12C [14]) | minimum viability across doses (TK-10 [15]) | minimum viability across doses (UO-31 [16]) | AUC of dose-response viability curve (769-P [17]) | AUC of dose-response viability curve (786-O [18]) | AUC of dose-response viability curve (A498 [19]) | AUC of dose-response viability curve (ACHN [20]) | AUC of dose-response viability curve (CAKI-1 [21]) | AUC of dose-response viability curve (SN12C [22]) | AUC of dose-response viability curve (TK-10 [23]) | AUC of dose-response viability curve (UO-31 [24])
5 | 196 nM | 578 nM | O=C1NCCc2[nH]c(-c3ccncc3)cc21 + Cc1nc(Nc2ncc(C(=O)Nc3c(C)cccc3Cl)s2)cc(N2CCN(CCO)CC2)n1 [dasatinib] | 8350 nM | 3110 nM | 718 nM | 4170 nM | 2040 nM | 2310 nM | 0.463 | 0.00389 | 0.0141 | 0.0122 | 0.0883 | 0.0225 | 0.185 | 0.0107 | 2.35 | 1.73 | 3.35 | 1.72 | 1.98 | 2.23 | 2.27 | 3.26
6 | > 10000 nM | > 10000 nM | N#CC[C@H](C1CCCC1)n1cc(-c2ncnc3[nH]ccc23)cn1 + Cc1nc(Nc2ncc(C(=O)Nc3c(C)cccc3Cl)s2)cc(N2CCN(CCO)CC2)n1 [dasatinib] | > 10000 nM | > 10000 nM | 4270 nM | > 10000 nM | > 10000 nM | > 10000 nM | 0.557 | 0.536 | 0.911 | 0.504 | 0.331 | 0.689 | 0.686 | 0.486 | 2.39 | 2.44 | 3.44 | 1.97 | 2.21 | 2.5 | 2.61 | 3.91
7 | > 10000 nM | 15.7 nM | CS(=O)c1ccc(-c2nc(-c3ccc(F)cc3)c(-c3ccncc3)[nH]2)cc1 (configuration not stated) + Cc1nc(Nc2ncc(C(=O)Nc3c(C)cccc3Cl)s2)cc(N2CCN(CCO)CC2)n1 [dasatinib] | > 10000 nM | > 10000 nM | > 10000 nM | > 10000 nM | > 10000 nM | > 10000 nM | 0.593 | 0.746 | 0.893 | 0.434 | 0.516 | 0.716 | 0.655 | 0.962 | 2.31 | 2.73 | 3.76 | 1.82 | 2.3 | 2.65 | 2.45 | 3.73
8 | 18 nM | 69.6 nM | OCc1ccc(-c2ccc(-c3ccc(CO)s3)o2)s1 + Cc1nc(Nc2ncc(C(=O)Nc3c(C)cccc3Cl)s2)cc(N2CCN(CCO)CC2)n1 [dasatinib] | 9.16 nM | 1700 nM | 4.49 nM | 219 nM | 15 nM | 917 nM | 0.0624 | 0.0022 | 0.292 | 0.0471 | 0.00172 | 0.0563 | 0.0365 | 0.0841 | 0.925 | 1.04 | 2.69 | 1.2 | 0.396 | 1.8 | 0.849 | 3.23
